Measured values from patent publication US11932611B1, “3-(5-(3-fluorophenyl)-4-phenyl-4H-1,2,4-triazol-3-ylthio)propanoic acid as an antimicrobial compound” (KING FAISAL UNIVERSITY, priority 2023, dated 2024).

Tests used:
Type in all cases: cell-based
[1] = system: Chrysosporium keratinophilum; assay: Agar plate disc-diffusion method, antifungal inhibition zone; conditions: Sabouraud's dextrose agar, 72 h
Method: (§1) The agar plate disc-diffusion method was applied. […] The discs were then placed onto the surface of agar plates (nutrient agar for bacteria and Sabouraud's dextrose agar for fungi) seeded with the test organism. Each plate contained 15 mL of the agar medium, previously seeded with 0.2 mL of the broth culture of each organism pregrown for 18 h. The plates were incubated at 37° C. for 48 h, and 72 h for fungi. The inhibition zones was measured in mm. Discs impregnated with DMSO were used as a control, and its inhibition zone was subtracted from the tested compound actual inhibition zone.

Aspergillus flavus = assay: as above; conditions: Sabouraud's dextrose agar, 72 h
Method: as §1

Staphylococcus aureus = assay: Agar plate disc-diffusion method, antibacterial inhibition zone; conditions: nutrient agar, 37° C., 48 h
Method: as §1

Bacillus cereus = assay: as above; conditions: nutrient agar, 37° C., 48 h
Method: as §1

Escherichia coli = assay: as above; conditions: nutrient agar, 37° C., 48 h
Method: as §1

Pseudomonas aeruginosa = assay: as above; conditions: nutrient agar, 37° C., 48 h
Method: as §1

[2] = A = concentration of comp. = 10,000 μL
[3] = B = concentration of comp. = 30,000 μL
[4] = C = concentration of comp. = 50,000 μL

`O=C(O)CCSc1nnc(-c2cccc(F)c2)n1-c1ccccc1` [III, 3-(5-(3-fluorophenyl)-4-phenyl-4H-1,2,4-triazol-3-ylthio)propanoic acid] was tested, and the “inhibition zone, Chrysosporium keratinophilum, A” value [1, 2] was 23 mm, the “inhibition zone, Chrysosporium keratinophilum, B” value [1, 3] was 26 mm and the “inhibition zone, Chrysosporium keratinophilum, C” value [1, 4] was 43 mm. The “inhibition zone, Aspergillus flavus, A” value (Aspergillus flavus; [2]) was 19 mm, the “inhibition zone, Aspergillus flavus, B” value (Aspergillus flavus; [3]) was 25 mm and the “inhibition zone, Aspergillus flavus, C” value (Aspergillus flavus; [4]) was 36 mm. The “inhibition zone, Staphylococcus aureus, A” value (Staphylococcus aureus; [2]) was 27 mm, the “inhibition zone, Staphylococcus aureus, B” value (Staphylococcus aureus; [3]) was 34 mm and the “inhibition zone, Staphylococcus aureus, C” value (Staphylococcus aureus; [4]) was 45 mm. The “inhibition zone, Bacillus Cereus, A” value (Bacillus cereus; [2]) was 24 mm, the “inhibition zone, Bacillus Cereus, B” value (Bacillus cereus; [3]) was 27 mm and the “inhibition zone, Bacillus Cereus, C” value (Bacillus cereus; [4]) was 38 mm. The “inhibition zone, Escherichia coli, A” value (Escherichia coli; [2]) was 25 mm, the “inhibition zone, Escherichia coli, B” value (Escherichia coli; [3]) was 31 mm and the “inhibition zone, Escherichia coli, C” value (Escherichia coli; [4]) was 45 mm. The “inhibition zone, Pseudomonas aeruginosa, A” value (Pseudomonas aeruginosa; [2]) was 22 mm, the “inhibition zone, Pseudomonas aeruginosa, B” value (Pseudomonas aeruginosa; [3]) was 24 mm and the “inhibition zone, Pseudomonas aeruginosa, C” value (Pseudomonas aeruginosa; [4]) was 41 mm.
